Assay results as given in ChEMBL document CHEMBL1201862, “PubChem BioAssay data set” (2004).
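Growth conditions: 96-well plates. Treatment: test compound, 48 hours, 5 concentrations. Analysis: linear interpolation between bracketing concentrations; unreached endpoints set to highest concentration. GI50: concentration for 50% inhibition of growth.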 Calls of active or inactive are those of the source. Cut-off read from the data, not from the text of the source: active = GI50 up to about 1.1 µM and inactive = higher.

Tests used:
Assay in all cases: NCI tumour cell line growth inhibition, 48 h
786-0 = tested on: 786-0
A498 = tested on: A498
A549 = tested on: A549
ACHN = tested on: ACHN
BT-549 = tested on: BT-549
CAKI-1 = tested on: CAKI-1
CCRF-CEM = tested on: CCRF-CEM
COLO 205 = tested on: COLO 205
DU-145 = tested on: DU-145
EKVX = tested on: EKVX
HCC 2998 = tested on: HCC 2998
HCT-116 = tested on: HCT-116
HCT-15 = tested on: HCT-15
HL-60 = tested on: HL-60
HOP-62 = tested on: HOP-62
HOP-92 = tested on: HOP-92
HT-29 = tested on: HT-29
Hs-578T = tested on: Hs-578T
IGROV-1 = tested on: IGROV-1
K562 = tested on: K562
KM12 = tested on: KM12
LOX IMVI = tested on: LOX IMVI
M14 = tested on: M14
MCF7 = tested on: MCF7
MDA-MB-231 = tested on: MDA-MB-231
MDA-MB-435 = tested on: MDA-MB-435
MDA-N = tested on: MDA-N
Malme-3M = tested on: Malme-3M
NCI-H226 = tested on: NCI-H226
NCI-H23 = tested on: NCI-H23
NCI-H460 = tested on: NCI-H460
NCI-H522 = tested on: NCI-H522
NCI/ADR-RES = tested on: NCI/ADR-RES
OVCAR-3 = tested on: OVCAR-3
OVCAR-4 = tested on: OVCAR-4
OVCAR-5 = tested on: OVCAR-5
OVCAR-8 = tested on: OVCAR-8
PC-3 = tested on: PC-3
RPMI-8226 = tested on: RPMI-8226
RXF 393 = tested on: RXF 393
SF-268 = tested on: SF-268
SF-295 = tested on: SF-295
SK-MEL-28 = tested on: SK-MEL-28
SK-MEL-2 = tested on: SK-MEL-2
SK-MEL-5 = tested on: SK-MEL-5
SK-OV-3 = tested on: SK-OV-3
SN12C = tested on: SN12C
SNB-19 = tested on: SNB-19
SNB-75 = tested on: SNB-75
SR = tested on: SR
SW-620 = tested on: SW-620
T47D = tested on: T47D
TK-10 = tested on: TK-10
U-251 = tested on: U-251
UACC-257 = tested on: UACC-257
UACC-62 = tested on: UACC-62
UO-31 = tested on: UO-31

Measured: GI50

NNC(=O)C(O)C(O)C(O)CO (configuration not stated)
inactive: 786-0 > 100 µM | A498 > 100 µM | A549 > 100 µM | ACHN > 100 µM | BT-549 > 100 µM | CAKI-1 > 100 µM | CCRF-CEM > 100 µM | COLO 205 > 100 µM | DU-145 > 100 µM | EKVX > 100 µM | HCC 2998 > 100 µM | HCT-116 > 100 µM | HL-60 > 100 µM | HOP-62 > 100 µM | HOP-92 > 100 µM | HT-29 > 100 µM | Hs-578T > 100 µM | IGROV-1 > 100 µM | K562 > 100 µM | KM12 > 100 µM | LOX IMVI 88.9 µM | M14 > 100 µM | MCF7 > 100 µM | MDA-MB-231 > 100 µM | MDA-MB-435 > 100 µM | MDA-N > 100 µM | Malme-3M > 100 µM | NCI-H226 > 100 µM | NCI-H23 > 100 µM | NCI-H460 > 100 µM | NCI-H522 > 100 µM | NCI/ADR-RES > 100 µM | OVCAR-3 > 100 µM | OVCAR-4 > 100 µM | OVCAR-5 > 100 µM | OVCAR-8 > 100 µM | PC-3 > 100 µM | RPMI-8226 > 100 µM | RXF 393 > 100 µM | SF-268 > 100 µM | SF-295 > 100 µM | SK-MEL-28 > 100 µM | SK-MEL-2 > 100 µM | SK-MEL-5 > 100 µM | SK-OV-3 > 100 µM | SN12C > 100 µM | SNB-19 > 100 µM | SNB-75 > 100 µM | SR 67.8 µM | SW-620 > 100 µM | T47D > 100 µM | TK-10 > 100 µM | U-251 > 100 µM | UACC-257 > 100 µM | UACC-62 > 100 µM | UO-31 > 100 µM
> 100 µM: HCT-15
